Data taken from ChEMBL document CHEMBL3745672, “Novel compounds reducing IRS-1 serine phosphorylation for treatment of diabetes” (Bioorg Med Chem Lett, 2016).

How the values were obtained:
[1] = molecular target: T1, Mitogen-activated protein kinase 8 (Homo sapiens, UniProt P45983); assay: Inhibition of JNK1 (unknown origin) expressed in HEK293 cells assessed as anisomycin-induced IRS-1(Ser307) phosphorylation at 10 uM incubated for 30 mins by Western blot analysis relative to anisomycin; type: cell-based; parameters: scale not given: the % may be the effect or the level left
T1 sequence (P45983 whole entry): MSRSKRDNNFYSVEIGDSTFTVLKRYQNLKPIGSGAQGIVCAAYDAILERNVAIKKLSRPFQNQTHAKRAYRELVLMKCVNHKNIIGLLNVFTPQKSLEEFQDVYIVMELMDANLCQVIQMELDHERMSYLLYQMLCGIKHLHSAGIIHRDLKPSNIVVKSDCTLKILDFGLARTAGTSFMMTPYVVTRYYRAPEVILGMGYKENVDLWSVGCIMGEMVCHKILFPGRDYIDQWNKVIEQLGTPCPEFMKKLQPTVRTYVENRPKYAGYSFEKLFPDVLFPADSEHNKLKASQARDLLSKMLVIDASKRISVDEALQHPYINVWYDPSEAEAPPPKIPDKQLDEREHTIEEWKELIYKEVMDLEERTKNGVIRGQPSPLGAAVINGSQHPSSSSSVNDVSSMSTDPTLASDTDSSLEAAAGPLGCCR

[2] = molecular target: Mitogen-activated protein kinase 8 (Rattus norvegicus) (UniProt P49185); assay: Inhibition of JNK1 phosphorylation in rat RINm5F cells assessed as suppression of albumin-conjugated palmitate-induced IRS-1 Ser307 phosphorylation incubated for 8 hrs; type: cell-based; parameters: concentration or dose not given beside the values; conditions: concentration not given here
Mitogen-activated protein kinase 8 (Rattus norvegicus), sequence (P49185 whole entry): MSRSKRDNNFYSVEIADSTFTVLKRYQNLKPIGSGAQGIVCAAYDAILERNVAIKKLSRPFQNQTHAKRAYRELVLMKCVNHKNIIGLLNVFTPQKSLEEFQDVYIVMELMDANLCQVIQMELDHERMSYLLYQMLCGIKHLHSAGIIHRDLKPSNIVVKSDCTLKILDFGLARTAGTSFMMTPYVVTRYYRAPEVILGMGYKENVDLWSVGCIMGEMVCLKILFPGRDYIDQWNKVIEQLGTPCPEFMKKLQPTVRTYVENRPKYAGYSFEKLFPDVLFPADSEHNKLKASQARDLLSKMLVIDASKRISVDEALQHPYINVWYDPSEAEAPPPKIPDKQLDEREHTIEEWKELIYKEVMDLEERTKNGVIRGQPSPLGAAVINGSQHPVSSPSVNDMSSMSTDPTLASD

[3] = molecular target: T2, Cyclin-dependent kinase 4/cyclin D1 (Homo sapiens) (UniProt P11802+P24385); assay: Inhibition of CDK4/cyclin D1 (unknown origin) at 1 uM; type: protein-complex assay
[4] = molecular target: CDK2/Cyclin A2 (Homo sapiens) (UniProt P24941+P20248); assay: Inhibition of CDK2/CyclinA (unknown origin) at 1 uM; type: protein-complex assay
[5] = molecular target: T1, Mitogen-activated protein kinase 8; assay: Inhibition of JNK1 (unknown origin) expressed in HEK293 cells assessed as anisomycin-induced JNK phosphorylation at 10 uM incubated for 30 mins by Western blot analysis relative to anisomycin; type: cell-based; parameters: scale not given: the % may be the effect or the level left
[6] = molecular target: Tyrosine-protein kinase receptor UFO (Homo sapiens) (UniProt P30530); assay: Inhibition of AXL (unknown origin) at 1 uM
Tyrosine-protein kinase receptor UFO (Homo sapiens), sequence (P30530 whole entry): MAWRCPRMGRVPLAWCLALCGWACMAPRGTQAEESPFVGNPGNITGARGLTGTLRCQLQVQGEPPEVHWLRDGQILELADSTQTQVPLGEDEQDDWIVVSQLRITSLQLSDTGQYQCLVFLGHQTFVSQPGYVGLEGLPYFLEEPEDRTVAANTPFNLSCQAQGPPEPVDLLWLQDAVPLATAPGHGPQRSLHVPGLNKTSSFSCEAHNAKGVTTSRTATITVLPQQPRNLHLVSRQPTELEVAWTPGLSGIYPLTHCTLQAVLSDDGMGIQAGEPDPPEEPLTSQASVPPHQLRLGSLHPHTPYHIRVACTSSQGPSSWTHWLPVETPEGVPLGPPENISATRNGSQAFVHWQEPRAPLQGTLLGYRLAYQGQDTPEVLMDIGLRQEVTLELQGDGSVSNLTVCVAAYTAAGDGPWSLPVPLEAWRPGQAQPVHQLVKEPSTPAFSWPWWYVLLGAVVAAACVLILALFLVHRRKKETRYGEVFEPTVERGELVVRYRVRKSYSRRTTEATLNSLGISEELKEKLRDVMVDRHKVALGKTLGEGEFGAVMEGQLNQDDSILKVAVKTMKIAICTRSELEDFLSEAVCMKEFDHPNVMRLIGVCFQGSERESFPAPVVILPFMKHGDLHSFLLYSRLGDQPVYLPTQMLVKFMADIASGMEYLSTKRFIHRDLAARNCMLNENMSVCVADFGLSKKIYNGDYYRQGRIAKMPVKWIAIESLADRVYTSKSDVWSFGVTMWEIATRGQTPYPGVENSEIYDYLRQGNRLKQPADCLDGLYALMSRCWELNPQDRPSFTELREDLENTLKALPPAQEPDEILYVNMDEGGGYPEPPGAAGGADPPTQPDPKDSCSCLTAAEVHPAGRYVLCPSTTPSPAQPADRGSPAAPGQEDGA

HEK293 = assay: Cytotoxicity against HEK293 after 24 hrs by CellTiter-Glo luminescent cell viability assay; type: cell-based; conditions: Homo sapiens, HEK293, 24 h
[7] = molecular target: Receptor-type tyrosine-protein kinase FLT3 (Homo sapiens) (UniProt P36888); assay: Inhibition of FLT3 (unknown origin) at 10 uM
[8] = molecular target: Platelet-derived growth factor receptor beta (Homo sapiens) (UniProt P09619); assay: Inhibition of PDGFRbeta (unknown origin) at 10 uM
[9] = molecular target: Protein kinase C alpha type (Homo sapiens) (UniProt P17252); assay: Inhibition of PKCalpha (unknown origin) at 10 uM
[10] = molecular target: Rho-associated protein kinase 2 (Homo sapiens) (UniProt O75116); assay: Inhibition of ROCK2 (unknown origin) at 10 uM
[11] = molecular target: Serine/threonine-protein kinase B-raf (Homo sapiens) (UniProt P15056); assay: Inhibition of B-RAF (unknown origin) at 10 uM
Serine/threonine-protein kinase B-raf (Homo sapiens), sequence (P15056 whole entry): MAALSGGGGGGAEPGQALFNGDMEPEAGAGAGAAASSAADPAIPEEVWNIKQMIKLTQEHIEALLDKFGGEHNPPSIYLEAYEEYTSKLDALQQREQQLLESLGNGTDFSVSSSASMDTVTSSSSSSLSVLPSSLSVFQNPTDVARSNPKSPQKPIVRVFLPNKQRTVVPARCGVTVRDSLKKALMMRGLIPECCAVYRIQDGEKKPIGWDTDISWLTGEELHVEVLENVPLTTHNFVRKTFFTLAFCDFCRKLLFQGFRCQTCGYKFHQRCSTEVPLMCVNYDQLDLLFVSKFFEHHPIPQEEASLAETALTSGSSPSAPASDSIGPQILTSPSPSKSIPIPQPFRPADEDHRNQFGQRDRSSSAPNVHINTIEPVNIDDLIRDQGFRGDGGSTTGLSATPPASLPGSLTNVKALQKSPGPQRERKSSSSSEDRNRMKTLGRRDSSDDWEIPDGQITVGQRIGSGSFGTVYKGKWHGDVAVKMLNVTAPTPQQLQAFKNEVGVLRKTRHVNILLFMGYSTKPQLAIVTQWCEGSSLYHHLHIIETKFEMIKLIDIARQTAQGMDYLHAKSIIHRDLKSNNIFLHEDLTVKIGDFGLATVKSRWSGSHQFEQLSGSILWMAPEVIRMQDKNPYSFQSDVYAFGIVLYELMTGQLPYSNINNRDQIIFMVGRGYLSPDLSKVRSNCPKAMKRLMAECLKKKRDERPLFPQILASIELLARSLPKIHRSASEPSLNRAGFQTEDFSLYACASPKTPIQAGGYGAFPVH

[12] = molecular target: Tyrosine-protein kinase CSK (Homo sapiens) (UniProt P41240); assay: Inhibition of CSK (unknown origin) at 10 uM
Tyrosine-protein kinase CSK (Homo sapiens), sequence (P41240 2-450 limits assumed): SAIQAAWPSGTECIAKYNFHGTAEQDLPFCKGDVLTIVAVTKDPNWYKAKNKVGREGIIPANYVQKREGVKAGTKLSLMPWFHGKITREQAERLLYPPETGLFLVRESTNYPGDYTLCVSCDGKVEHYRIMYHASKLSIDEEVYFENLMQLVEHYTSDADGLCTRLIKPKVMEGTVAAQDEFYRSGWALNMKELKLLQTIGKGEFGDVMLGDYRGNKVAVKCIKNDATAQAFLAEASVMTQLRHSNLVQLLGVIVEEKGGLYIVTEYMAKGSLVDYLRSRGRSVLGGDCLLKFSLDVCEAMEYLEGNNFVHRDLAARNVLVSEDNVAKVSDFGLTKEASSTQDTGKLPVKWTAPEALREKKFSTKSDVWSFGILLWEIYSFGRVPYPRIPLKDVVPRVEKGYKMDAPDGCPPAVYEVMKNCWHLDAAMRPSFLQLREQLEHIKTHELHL

[13] = molecular target: Angiopoietin-1 receptor (Homo sapiens) (UniProt Q02763); assay: Inhibition of TIE2 (unknown origin) at 10 uM
[14] = molecular target: T1, Mitogen-activated protein kinase 8; assay: Inhibition of JNK1 (unknown origin) at 10 uM
[15] = molecular target: Proto-oncogene tyrosine-protein kinase receptor Ret (Homo sapiens) (UniProt P07949); assay: Inhibition of RET (unknown origin) at 10 uM
Proto-oncogene tyrosine-protein kinase receptor Ret (Homo sapiens), sequence (P07949 whole entry): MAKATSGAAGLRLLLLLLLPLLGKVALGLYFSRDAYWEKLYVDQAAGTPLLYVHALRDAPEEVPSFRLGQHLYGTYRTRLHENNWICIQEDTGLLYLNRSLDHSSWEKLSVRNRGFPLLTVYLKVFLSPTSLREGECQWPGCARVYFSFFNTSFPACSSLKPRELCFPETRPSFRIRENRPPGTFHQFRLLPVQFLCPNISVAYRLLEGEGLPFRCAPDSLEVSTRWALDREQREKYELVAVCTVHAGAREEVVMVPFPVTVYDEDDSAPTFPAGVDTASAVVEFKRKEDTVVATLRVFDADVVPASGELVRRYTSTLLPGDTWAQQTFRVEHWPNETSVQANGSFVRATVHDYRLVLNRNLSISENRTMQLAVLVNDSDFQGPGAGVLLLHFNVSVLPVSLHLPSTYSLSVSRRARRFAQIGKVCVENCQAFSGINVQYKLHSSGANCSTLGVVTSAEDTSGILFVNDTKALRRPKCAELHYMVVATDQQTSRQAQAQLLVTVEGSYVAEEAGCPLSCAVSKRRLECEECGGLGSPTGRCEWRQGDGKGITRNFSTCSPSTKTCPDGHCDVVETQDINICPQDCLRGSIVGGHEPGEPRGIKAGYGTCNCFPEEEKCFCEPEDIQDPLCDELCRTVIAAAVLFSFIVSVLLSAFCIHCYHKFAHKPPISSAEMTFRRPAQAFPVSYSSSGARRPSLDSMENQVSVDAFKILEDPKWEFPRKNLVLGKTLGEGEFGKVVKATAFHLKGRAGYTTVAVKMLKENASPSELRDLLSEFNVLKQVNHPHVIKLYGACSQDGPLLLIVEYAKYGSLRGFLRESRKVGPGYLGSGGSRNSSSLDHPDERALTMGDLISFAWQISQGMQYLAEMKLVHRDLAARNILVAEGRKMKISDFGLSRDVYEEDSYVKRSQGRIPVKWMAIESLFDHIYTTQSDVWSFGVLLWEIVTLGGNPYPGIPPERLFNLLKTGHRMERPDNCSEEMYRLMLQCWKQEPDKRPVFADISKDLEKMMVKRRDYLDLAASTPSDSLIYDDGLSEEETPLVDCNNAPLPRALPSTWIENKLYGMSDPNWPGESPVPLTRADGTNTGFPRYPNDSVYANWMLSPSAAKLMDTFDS

[16] = molecular target: Tyrosine-protein kinase receptor UFO (Homo sapiens) (UniProt P30530); assay: Inhibition of AXL (unknown origin) at 10 uM
[17] = molecular target: Receptor tyrosine-protein kinase erbB-2 (Homo sapiens) (UniProt P04626); assay: Inhibition of ERBB2 (unknown origin) at 10 uM
[18] = molecular target: Serine/threonine-protein kinase PLK3 (Homo sapiens) (UniProt Q9H4B4); assay: Inhibition of PLK3 (unknown origin) at 10 uM
[19] = molecular target: Serine/threonine-protein kinase pim-1 (Homo sapiens) (UniProt P11309); assay: Inhibition of PIM1 (unknown origin) at 10 uM
Serine/threonine-protein kinase pim-1 (Homo sapiens), sequence (P11309 whole entry, looked up): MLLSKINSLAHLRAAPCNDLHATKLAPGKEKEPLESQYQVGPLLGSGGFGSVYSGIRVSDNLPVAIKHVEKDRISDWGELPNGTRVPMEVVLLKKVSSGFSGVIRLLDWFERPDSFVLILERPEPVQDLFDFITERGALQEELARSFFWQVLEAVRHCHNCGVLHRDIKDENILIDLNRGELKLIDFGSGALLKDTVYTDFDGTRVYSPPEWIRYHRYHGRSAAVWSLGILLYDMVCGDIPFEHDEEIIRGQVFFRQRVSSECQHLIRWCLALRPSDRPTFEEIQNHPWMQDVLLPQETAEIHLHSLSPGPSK

[20] = molecular target: Serine/threonine-protein kinase PAK 1 (Homo sapiens) (UniProt Q13153); assay: Inhibition of PAK1 (unknown origin) at 10 uM
[21] = molecular target: Vascular endothelial growth factor receptor 2 (Homo sapiens) (UniProt P35968); assay: Inhibition of VEGFR2 (unknown origin) at 10 uM
[22] = molecular target: Insulin receptor (Homo sapiens) (UniProt P06213); assay: Inhibition of INSR (unknown origin) at 10 uM
[23] = molecular target: Serine/threonine-protein kinase PAK 4 (Homo sapiens) (UniProt O96013); assay: Inhibition of PAK4 (unknown origin) at 10 uM
Serine/threonine-protein kinase PAK 4 (Homo sapiens), sequence (O96013 whole entry, looked up): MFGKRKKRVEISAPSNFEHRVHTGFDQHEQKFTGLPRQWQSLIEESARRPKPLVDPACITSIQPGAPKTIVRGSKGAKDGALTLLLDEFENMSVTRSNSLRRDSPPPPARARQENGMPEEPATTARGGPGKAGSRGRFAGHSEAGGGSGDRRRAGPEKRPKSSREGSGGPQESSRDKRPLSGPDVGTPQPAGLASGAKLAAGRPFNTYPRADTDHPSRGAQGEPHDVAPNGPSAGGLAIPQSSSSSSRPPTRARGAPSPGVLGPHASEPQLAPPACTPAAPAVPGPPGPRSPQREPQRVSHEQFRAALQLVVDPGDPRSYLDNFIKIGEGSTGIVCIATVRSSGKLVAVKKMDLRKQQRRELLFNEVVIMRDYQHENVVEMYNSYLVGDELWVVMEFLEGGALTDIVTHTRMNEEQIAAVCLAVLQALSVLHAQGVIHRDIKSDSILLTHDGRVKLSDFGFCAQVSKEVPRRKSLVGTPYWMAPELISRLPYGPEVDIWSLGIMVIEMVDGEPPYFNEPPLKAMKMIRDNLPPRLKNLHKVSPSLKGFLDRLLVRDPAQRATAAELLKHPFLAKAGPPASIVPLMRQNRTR

[24] = molecular target: T2, Cyclin-dependent kinase 4/cyclin D1 (Homo sapiens); assay: Inhibition of CDK4/cyclin D1 (unknown origin) at 10 uM; type: protein-complex assay
[25] = molecular target: Serine/threonine-protein kinase mTOR (Homo sapiens) (UniProt P42345); assay: Inhibition of mTOR (unknown origin) at 10 uM
[26] = molecular target: T3, Inhibitor of nuclear factor kappa-B kinase subunit beta (Homo sapiens) (UniProt O14920); assay: Inhibition of IKKbeta (unknown origin) at 10 uM
T3 sequence (whole entry): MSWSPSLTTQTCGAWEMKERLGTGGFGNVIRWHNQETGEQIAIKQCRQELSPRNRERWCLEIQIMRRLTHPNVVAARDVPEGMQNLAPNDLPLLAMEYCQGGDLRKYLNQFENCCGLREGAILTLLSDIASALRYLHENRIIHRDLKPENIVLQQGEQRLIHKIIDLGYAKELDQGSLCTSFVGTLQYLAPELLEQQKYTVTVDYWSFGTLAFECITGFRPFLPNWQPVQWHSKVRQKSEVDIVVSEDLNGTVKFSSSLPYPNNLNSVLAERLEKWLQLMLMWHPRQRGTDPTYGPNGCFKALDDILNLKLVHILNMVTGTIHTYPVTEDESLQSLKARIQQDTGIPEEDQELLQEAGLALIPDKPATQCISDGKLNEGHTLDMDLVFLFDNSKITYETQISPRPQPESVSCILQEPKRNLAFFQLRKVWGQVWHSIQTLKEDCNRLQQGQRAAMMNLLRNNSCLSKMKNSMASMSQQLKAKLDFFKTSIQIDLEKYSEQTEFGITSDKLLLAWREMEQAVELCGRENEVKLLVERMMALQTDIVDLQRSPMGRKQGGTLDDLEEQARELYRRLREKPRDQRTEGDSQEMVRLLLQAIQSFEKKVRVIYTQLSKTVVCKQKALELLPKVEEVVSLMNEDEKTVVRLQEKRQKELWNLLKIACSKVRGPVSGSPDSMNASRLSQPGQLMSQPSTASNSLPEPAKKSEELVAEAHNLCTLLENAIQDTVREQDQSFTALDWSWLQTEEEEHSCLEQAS

[27] = molecular target: T4, Aurora kinase A (Homo sapiens) (UniProt O14965); assay: Inhibition of AurA (unknown origin) at 10 uM
T4 sequence (whole entry): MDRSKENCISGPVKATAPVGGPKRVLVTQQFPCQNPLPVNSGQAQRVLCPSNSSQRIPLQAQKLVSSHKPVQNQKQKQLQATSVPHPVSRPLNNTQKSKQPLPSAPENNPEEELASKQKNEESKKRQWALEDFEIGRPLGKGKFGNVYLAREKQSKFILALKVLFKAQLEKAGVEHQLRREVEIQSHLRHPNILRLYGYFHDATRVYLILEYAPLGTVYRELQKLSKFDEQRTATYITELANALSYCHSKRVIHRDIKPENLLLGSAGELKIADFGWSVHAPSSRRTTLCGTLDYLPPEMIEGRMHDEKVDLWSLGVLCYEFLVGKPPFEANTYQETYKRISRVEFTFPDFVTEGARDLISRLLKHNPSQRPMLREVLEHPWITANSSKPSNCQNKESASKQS

Cn1c(=O)c(Oc2ccc(F)cc2F)cc2cnc(NC3CCN(S(N)(=O)=O)CC3)nc21
Activity [1]: 0% | inhibition [2]: 96% | inhibition [3]: 27% | inhibition [4]: 10% | Activity [5]: 30.5% | inhibition [6]: 16% | IC50 (HEK293): > 30 µM

Cn1c(=O)c(Oc2ccc(F)cc2F)cc2cnc(Nc3ccc(N4CCC(O)CC4)cc3)nc21
inhibition [7]: 11% | inhibition [8]: 100% | inhibition [9]: 13% | inhibition [10]: 12% | inhibition [11]: 61% | inhibition [12]: 34% | Activity [1]: 0% | inhibition [13]: 10% | inhibition [14]: 94% | inhibition [15]: 100% | inhibition [16]: 9% | inhibition [17]: 78% | inhibition [18]: 33% | inhibition [19]: 22% | inhibition [20]: 6% | inhibition [21]: 100% | inhibition [22]: 8% | inhibition [23]: 36% | inhibition [24]: 30% | Activity [5]: 29.6% | inhibition [25]: 22% | inhibition [26]: 16% | inhibition [27]: 66% | IC50 (HEK293): > 30 µM
